Reference: a melting point compilation (Tetko et al.)

Row | SMILES | melting point [°C]
1 | COc1ccc([N+](=O)[O-])cc1N=C=S | 105 to 107
2 | CON(C)C(=O)Nc1ccc(Cl)cc1 | 81.5
3 | COC(=O)C(O)C(O)C(=O)OC (centres undefined) | 59
4 | O=C1CCOc2ccc(Cl)cc21 | 102
5 | Cc1onc(-c2ccc(F)cc2)c1C(=O)O | 197 to 200
6 | O=C(CC(C(=O)c1ccccc1)C(CC(=O)c1ccccc1)C(=O)c1ccccc1)c1ccccc1 (centres undefined) | 169
7 | CC(=O)OC1CCC2(C)C(=CCC3C2CCC2(C)C(C(C)=O)CCC32)C1 (centres undefined) | 149 to 152
8 | CCNC(=O)C1CC(C)CCC1C(C)C (centres undefined) | 88
9 | Cc1nn(C)c2ncnc(N)c12 | 190
10 | O=Cc1cccc(-n2cccn2)c1 | 38 to 39
11 | O=c1[nH]c2ccccc2n1C1CCNCC1 | 183 to 185
12 | CC(=NNC(N)=O)c1ccncc1 | 218
13 | Cc1nc(C)c(Br)s1 | 153 to 155
14 | NC(=O)c1cccc(C(=O)O)c1 | 280
15 | N#CCON=C(C#N)c1ccccc1 | 55
16 | O=[N+]([O-])c1ccc(CSc2ncnc3c2ncn3C2OC(CO)C(O)C2O)cc1 (centres undefined) | 194 to 196
17 | Nc1ncc([N+](=O)[O-])cn1 | 237
18 | O=C1CCCC1C1CCCC1 (centres undefined) | -13
19 | CC(OC(=O)Nc1ccccc1)c1cccc(C(C)OC(=O)Nc2ccccc2)c1 (centres undefined) | 136
20 | Fc1ccc(Br)c2ccccc12 | 35
21 | CC(C)NC(=O)C(Br)C(C)(C)C (centres undefined) | 128 to 130
22 | CCCCN(CCCC)CCCC | -70
23 | CC1(C)OC(c2ccco2)CN1C(=O)C(Cl)Cl (centres undefined) | 97
24 | CC(=O)Oc1cc2c(cc1Cl)C1(OC(=O)c3ccccc31)c1cc(Cl)c(OC(C)=O)cc1O2 | 239 to 246
25 | O=[N+]([O-])/C=C/c1cccc(/C=C/[N+](=O)[O-])c1 | 203 to 204
26 | O=C(c1ccccn1)C(O)c1ccccn1 (centres undefined) | 151 to 158

Row | SMILES | melting point [°C]
27 | C=C[Si](c1ccccc1)(c1ccccc1)c1ccccc1 | 63 to 70
28 | CC(=O)c1ccc(I)s1 | 128
29 | O=c1cc(-c2ccc(F)cc2)oc(-c2ccc(F)cc2)c1 | 168 to 169
30 | CCCCCCc1ccc(C(=O)Oc2ccc(C#N)cc2)cc1 | 46
31 | CC(C)[C@@H]1CC[C@H](C)C[C@@H]1OC(=O)c1cccc(C(=O)O)n1 | 120
32 | c1ccc2sc(Cc3nc4ccccc4s3)nc2c1 | 92 to 96
33 | C1COCCNCCOCCOCCN1 | 89 to 92
34 | CCC1CN2CCC3(C(=O)Nc4ccccc43)C2CC1C(=COC)C(=O)OC (centres undefined) | 216
35 | CCOC(=O)C(=O)C=P(c1ccccc1)(c1ccccc1)c1ccccc1 | 176
36 | O=C(OCC(O)CO)c1ccccc1Nc1ccnc2c(C(F)(F)F)cccc12 (centres undefined) | 180
37 | Cc1nc(O)ccc1[N+](=O)[O-] | 235
38 | NC(=NO)c1cccc(Cl)c1Cl | 139 to 140
39 | CC(N)Cc1ccc(O)cc1 (centres undefined) | 126
40 | C#CC1=C(C=NNc2ccc([N+](=O)[O-])cc2[N+](=O)[O-])CCCC1 | 190
41 | C=CC1=C(C=NNc2ccc([N+](=O)[O-])cc2[N+](=O)[O-])CCCC1 | 152 to 153
42 | CCCOC(=O)c1ccccc1 | -51.6
43 | COc1ccc(C(N)CCO)cc1 (centres undefined) | 82 to 86
44 | COc1ccc(CC2c3cc(OC)c(OC)cc3CCN2C)cc1O (centres undefined) | 184
45 | COC1OC(COC(C)=O)C(OC2OC(COC(C)=O)C(OC(C)=O)C(OC(C)=O)C2OC(C)=O)C(OC(C)=O)C1OC(C)=O (centres undefined) | 131
46 | Oc1ccccc1C(O)c1ccccc1 (centres undefined) | 88
47 | Cc1cc(CS)c(CS)cc1C | 64 to 69
48 | O=C(NCCN=Cc1ccccn1)C(=O)NCc1ccccn1 | 125
49 | COc1cc2c(cc1OC)C(c1cc(Cl)ccc1[N+](=O)[O-])=NCC2 | 169 to 170
50 | Cc1ccc([C@H]2O[C@@H](c3ccc(C)cc3)[C@H](C)C(=O)[C@@H]2C)cc1 | 140
51 | CN(C(=O)Cl)c1ccccc1 | 88.5
52 | Cc1c(Br)cc([N+](=O)[O-])cc1Br | 56

Row | SMILES | melting point [°C]
53 | COc1ccc(NC(=O)/C(C)=N\NC(N)=O)cc1 | 226 to 228
54 | CC(=Nc1ccc(N=Nc2ccccc2)cc1)c1c(O)c2ccccc2n(-c2ccccc2)c1=O | 191
55 | CNC(=C[N+](=O)[O-])NCCSCc1ccc(CN(C)C)o1 | 69
56 | Cc1cccc2c1C(=O)OC2O (centres undefined) | 117
57 | COC(=O)CCC(C)C1CCC2C3CCC4CC(=O)CCC4(C)C3CC(=O)C12C (centres undefined) | 129 to 130
58 | COc1ccc(C(N)=O)cc1[N+](=O)[O-] | 175
59 | COC(=O)[C@@H](C)Oc1ccc(O)cc1 | 64 to 67
60 | NNC(=O)C(O)(c1ccccc1)c1ccccc1 | 168 to 169
61 | CC(C(=O)O)N(C)C(=O)OC(C)(C)C (centres undefined) | 90
62 | O=C1CCCCCCN1 | 36.5
63 | CC(=O)OC1CC2C(C)C(=O)C3(C4CC5C(C)(C)CCC(OC(C)=O)C5(C(OC(C)=O)O4)C13)C2OC(C)=O (centres undefined) | 265
64 | CC1CCCC1=O (centres undefined) | -75
65 | CCOC(=O)c1sc(C2CCN(C(=O)OC(C)(C)C)CC2)nc1C | 47
66 | N=C(N)NC(=N)Nc1ccccc1 | 143
67 | Cl[Si](Cl)(Cl)CCC12CC3CC(CC(C3)C1)C2 | 36
68 | Cc1cccc(Cl)c1C#N | 81
69 | c1ccc(CCNc2cccc3cccnc23)cc1 | 57.6
70 | NC(CC(=O)O)C(F)(F)F (centres undefined) | 185 to 190
71 | CN1CCC(CN2c3ccccc3Sc3ccccc32)C1 (centres undefined) | 87
72 | O=C(CBr)c1ccc(-c2ccccc2)s1 | 115 to 117
73 | COc1ccc(C(=O)CC#N)cc1 | 129 to 132
74 | Cc1ccc(O)c(C(=O)C(F)(F)F)c1 | 41
75 | Fc1ccc(OCC2CO2)cc1 (centres undefined) | 19.5
76 | Cc1cc(O)c(Cl)cc1Cl | 73
77 | Cn1c(=O)c(C2=NNC(=O)C2=CCc2ccccc2)c(O)c2ccccc21 | 249
78 | O=C(c1cccs1)c1noc(-c2ccc3ccccc3c2)c1S(=O)(=O)c1ccccc1 | 128

Row | SMILES | melting point [°C]
79 | Oc1c(Cl)c(Cl)c(O)c(Cl)c1Cl | 239
80 | Clc1cccc(Cl)c1N=C1NCCN1 | 130
81 | N#CC(F)(Cl)Cl | -110
82 | O=c1cc(-c2ccccc2)oc2ccc(Cl)cc12 | 183 to 187
83 | CCC1(O)CCCCC1 | 34.5
84 | COc1ccc(F)cc1C#N | 117
85 | ClCc1noc(-c2ccsc2)n1 | 69 to 70
86 | CC(=O)OOC(=O)c1ccccc1 | 37
87 | CC(C)CCCCCCCOC(=O)c1ccccc1C(=O)OCCCCCCCC(C)C | -45.6
88 | CC(=O)C1CCC2C3CCC4CC(=O)CCC4(C)C3CCC12C (centres undefined) | 200
89 | O=C1c2ccccc2C(=O)N1CCOCCO | 64
90 | COc1ccccc1C=C(C(=O)O)c1ccccc1 | 158
91 | O=C(O)C(O)c1ccccc1F (centres undefined) | 115
92 | COC(=O)CCCC(=O)OC | -37
93 | Clc1ncccc1-c1cccc(Br)n1 | 140
94 | C/C=C/c1ccccc1C(=O)O | 81 to 86
95 | O=C(NCCc1cc([N+](=O)[O-])c(CCNC(=O)c2ccccc2)c([N+](=O)[O-])c1)c1ccccc1 | 217
96 | COc1ccc2c(c1OC)CN(C)CCc1cc3c(cc1C(=O)C2)OCO3 | 160
97 | CCCCCCCCCCCC(=O)OCc1ccccc1 | 8.5
98 | O=C1c2ccccc2-c2c(O)cccc21 | 250
99 | Oc1cc(C(F)(F)F)nc2ccc(Cl)cc12 | 280 to 289
100 | CC(C)C(=O)NN | 97 to 100
101 | CCc1ccccc1Nc1ccccc1CC | 29
102 | Nc1ncccc1C(=O)O | 295 to 297
103 | BrCC(CBr)CBr | -32
104 | O=Cc1cc2cccnc2s1 | 142 to 143

Row | SMILES | melting point [°C]
105 | CC1CCCC(=O)C1 (centres undefined) | -73
106 | Cc1ccnc(SCC(=O)O)n1 | 192
107 | O=c1[nH]ccc(=S)[nH]1 | 295
108 | N[C@@H]1CC[C@H](C(=O)O)C1 | 192
109 | ClCc1c(Cl)c(Cl)c(CCl)c(Cl)c1Cl | 174
110 | OC(c1ccccc1)c1cccc(C(F)(F)F)c1 (centres undefined) | 63
111 | O=C1NCc2ccccc21 | 151
112 | O=Cc1ccccc1Cn1cncn1 | 59
113 | CN(C)S(=O)(=O)Oc1ccc(C#N)cc1 | 70 to 73
114 | COC(=O)c1c(C)c2c(c(C(=O)OC)c1C)CC2=O | 117
115 | COC(=O)CCc1ccc(O)cc1 | 37 to 41
116 | Cc1ccc(N2CSc3nnc(-c4cccc([N+](=O)[O-])c4)n3C2)cc1 | > 300
117 | O=C1c2ccccc2C(=O)N1Cl | 185 to 189
118 | C[Si]1(c2ccccc2)O[Si](C)(c2ccccc2)O[Si](C)(c2ccccc2)O1 (centres undefined) | 100
119 | Oc1cc(Cl)cc(Cl)c1O | 82.5
120 | O=Cc1c[nH]nc1-c1ccc(C(F)(F)F)cc1 | 113 to 115
121 | O=CN(C=O)C=O | 100 to 101
122 | Cc1cc(C)c2c(=O)n(-c3cccc(C(F)(F)F)c3)c(=O)[nH]c2n1 | 264 to 266
123 | O=C(CCl)Nc1ccc(Cl)cc1 | 168 to 170
124 | Cn1nc2ccccc2c1C(=O)Cl | 89 to 90
125 | O=C1CNCCCNCC(=O)NCCCN1 | 141
126 | O=C(Nc1ccc(Cl)cc1)Nc1ccc(Cl)c(Cl)c1 | 256
127 | CC12CCC(O)CC1CCC1C2CCC2(C)C(C3=CC(=O)OC3)CCC12O (centres undefined) | 253
128 | COC(=O)c1ccc([N+](=O)[O-])c(OC)c1 | 85
129 | NC(=O)[C@@H]1CCCN1 | 97 to 102
